According to US12325710B2, “Substituted 1,2,3,4,5,6-hexahydroazepino[4,5-b]indoles for treating brain disorders” (priority 2019, dated 2025):
Entries after “also recorded” stand apart in the source; their conditions may differ.

What was measured:
[1] = test system: rat embryonic cortical neurons; assay: Dendritogenesis (Sholl analysis) in cultured cortical neurons; assay type: cell-based; settings: 1 h treatment followed by 71 h growth; compared to vehicle (VEH)
Experimental: Embryonic rat cortical neurons were treated for a short period of time (1 h) followed by a suitable growth period (71 h) to measure the psychoplastogenic effects of the compounds described herein. […] Therefore, the effects of ibogalogs 8-17 on dendritic growth was assessed.
Dendritogenesis Experiments. For the dendritogenesis experiments conducted using cultured cortical neurons, timed pregnant Sprague Dawley rats were obtained from Charles River Laboratories (Wilmington, MA). Full culturing, staining, and analysis details were performed as previously described. (Dunlap, L. et al., 2019)

[2] = Solubility in 0.9% saline; settings: saline or isotonic
[3] = molecular target: 5-HT2B receptors (Homo sapiens, UniProt P41595); assay: 5-HT2B Gq-mediated calcium flux functional assay; assay type: cell-based
5-HT2B receptors, sequence (P41595 whole entry, canonical isoform): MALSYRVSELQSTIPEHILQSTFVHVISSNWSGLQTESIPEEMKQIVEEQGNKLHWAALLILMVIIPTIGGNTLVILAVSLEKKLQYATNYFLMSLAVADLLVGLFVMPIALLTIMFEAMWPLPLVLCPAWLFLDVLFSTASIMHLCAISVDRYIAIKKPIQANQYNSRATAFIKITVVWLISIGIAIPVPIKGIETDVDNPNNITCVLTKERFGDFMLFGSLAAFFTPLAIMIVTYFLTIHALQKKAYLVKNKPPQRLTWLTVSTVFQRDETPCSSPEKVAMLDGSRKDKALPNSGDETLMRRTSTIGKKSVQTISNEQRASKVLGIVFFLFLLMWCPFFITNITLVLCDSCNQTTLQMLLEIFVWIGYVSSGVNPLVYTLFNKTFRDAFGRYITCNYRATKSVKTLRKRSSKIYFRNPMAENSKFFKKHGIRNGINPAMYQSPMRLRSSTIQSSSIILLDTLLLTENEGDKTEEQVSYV
Experimental: (§1) Serotonin and Opioid Receptor Functional Assays. Functional assay screens at 5-HT and opioid receptors were performed in parallel using the same compound dilutions and 384-well format high-throughput assay platforms. Assays assessed activity at all human isoforms of the receptors, except where noted for the mouse 5-HT2A receptor. Receptor constructs in pcDNA vectors were generated from the Presto-Tango GPCR library with minor modifications. All compounds were serially diluted in drug buffer (HBSS, 20 mM HEPES, pH 7.4 supplemented with 0.1% bovine serum albumin and 0.01% ascorbic acid) and dispensed into 384-well assay plates using a FLIPR^TETRA (Molecular Devices). Every plate included a positive control such as 5-HT (for all 5-HT receptors), DADLE (DOR), salvinorin A (KOR), and DAMGO (MOR). For measurements of 5-HT2A, 5-HT2B, and 5-HT2C Gq-mediated calcium flux function, HEK Flp-In 293 T-Rex stable cell lines (Invitrogen) were loaded with Fluo-4 dye for one hour, stimulated with compounds and read for baseline (0-10 seconds) and peak fold-over-basal fluorescence (5 minutes) at 25° C. on the FLIPR^TETRA. For measurement of 5-HT6 and 5-HT7a functional assays, Gs-mediated cAMP accumulation was detected using the split-luciferase GloSensor assay in HEKT cells measuring luminescence on a Microbeta Trilux (Perkin Elmer) with a 15 min drug incubation at 25° C. For 5-HT1A, 5-HT1B, 5-HT1F, MOR, KOR, and DOR functional assays, Gi/o-mediated cAMP inhibition was measured using the split-luciferase GloSensor assay in HEKT cells, conducted similarly as above, but in combination with either 0.3 μM isoproterenol (5-HT1A, 5-HT1B, 5-HT1F) or 1 μM forskolin (MOR, KOR, and DOR) to stimulate endogenous cAMP accumulation. For measurement of 5-HT1D, 5-HT1E, 5-HT4, and 5-HT5A functional assays, β-arrestin2 recruitment was measured by the Tango assay utilizing HTLA cells expressing TEV fused-β-arrestin2, as described previously with minor modifications. […]

[4] = molecular target: human 5-HT2A receptors (Homo sapiens, UniProt P28223); assay: 5-HT2A Gq-mediated calcium flux functional assay (human); assay type: cell-based
human 5-HT2A receptors, sequence (P28223 whole entry, the tested form may be a part): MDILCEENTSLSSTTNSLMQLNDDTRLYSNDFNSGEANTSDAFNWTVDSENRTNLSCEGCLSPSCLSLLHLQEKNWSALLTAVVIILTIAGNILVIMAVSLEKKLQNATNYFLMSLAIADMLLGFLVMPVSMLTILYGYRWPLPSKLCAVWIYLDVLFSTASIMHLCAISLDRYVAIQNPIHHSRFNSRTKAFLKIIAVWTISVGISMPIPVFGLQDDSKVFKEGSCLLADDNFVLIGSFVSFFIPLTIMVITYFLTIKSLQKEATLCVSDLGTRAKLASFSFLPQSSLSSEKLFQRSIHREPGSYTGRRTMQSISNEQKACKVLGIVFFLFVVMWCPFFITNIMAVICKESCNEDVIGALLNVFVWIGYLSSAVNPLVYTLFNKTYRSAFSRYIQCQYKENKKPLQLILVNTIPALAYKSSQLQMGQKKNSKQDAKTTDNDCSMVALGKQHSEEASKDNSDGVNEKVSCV
Experimental: as §1, with “C.” for “C. For 5-HT1A, 5-HT1B, 5-HT1F, MOR, KOR, and DOR functional assays, Gi/o-mediated cAMP inhibition was measured using the split-luciferase GloSensor assay in HEKT cells, conducted similarly as above, but in combination with either 0.3 μM isoproterenol (5-HT1A, 5-HT1B, 5-HT1F) or 1 μM forskolin (MOR, KOR, and DOR) to stimulate endogenous cAMP accumulation. For measurement of 5-HT1D, 5-HT1E, 5-HT4, and 5-HT5A functional assays, β-arrestin2 recruitment was measured by the Tango assay utilizing HTLA cells expressing TEV fused-β-arrestin2, as described previously with minor modifications.”

[5] = molecular target: T1, 5-HT2C (Homo sapiens, UniProt P28335); assay: 5-HT2C Gq-mediated calcium flux functional assay; assay type: cell-based
T1 sequence (P28335 33-458): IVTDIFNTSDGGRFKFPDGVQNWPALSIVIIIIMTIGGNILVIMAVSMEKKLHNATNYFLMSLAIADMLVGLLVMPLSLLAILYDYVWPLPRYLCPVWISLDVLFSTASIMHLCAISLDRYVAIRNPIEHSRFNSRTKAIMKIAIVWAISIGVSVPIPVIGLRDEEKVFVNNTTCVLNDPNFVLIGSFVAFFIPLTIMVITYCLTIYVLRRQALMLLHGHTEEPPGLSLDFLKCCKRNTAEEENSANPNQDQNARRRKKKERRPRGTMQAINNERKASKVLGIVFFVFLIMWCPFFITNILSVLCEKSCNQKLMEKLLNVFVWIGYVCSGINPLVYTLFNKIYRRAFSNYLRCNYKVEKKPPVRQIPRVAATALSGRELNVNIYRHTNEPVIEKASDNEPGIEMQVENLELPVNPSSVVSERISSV
Experimental: as §1, with “C.” for “C. For 5-HT1A, 5-HT1B, 5-HT1F, MOR, KOR, and DOR functional assays, Gi/o-mediated cAMP inhibition was measured using the split-luciferase GloSensor assay in HEKT cells, conducted similarly as above, but in combination with either 0.3 μM isoproterenol (5-HT1A, 5-HT1B, 5-HT1F) or 1 μM forskolin (MOR, KOR, and DOR) to stimulate endogenous cAMP accumulation. For measurement of 5-HT1D, 5-HT1E, 5-HT4, and 5-HT5A functional assays, β-arrestin2 recruitment was measured by the Tango assay utilizing HTLA cells expressing TEV fused-β-arrestin2, as described previously with minor modifications.”

[6] = molecular target: T2, 5-HT1A (Homo sapiens, UniProt P08908); assay: 5-HT1A functional assay (Gi/o-mediated cAMP inhibition); assay type: cell-based
T2 construct: expressed in transfected cells; host or cells: HEKT cells (GloSensor cAMP assay)
T2 sequence (P08908 1-422): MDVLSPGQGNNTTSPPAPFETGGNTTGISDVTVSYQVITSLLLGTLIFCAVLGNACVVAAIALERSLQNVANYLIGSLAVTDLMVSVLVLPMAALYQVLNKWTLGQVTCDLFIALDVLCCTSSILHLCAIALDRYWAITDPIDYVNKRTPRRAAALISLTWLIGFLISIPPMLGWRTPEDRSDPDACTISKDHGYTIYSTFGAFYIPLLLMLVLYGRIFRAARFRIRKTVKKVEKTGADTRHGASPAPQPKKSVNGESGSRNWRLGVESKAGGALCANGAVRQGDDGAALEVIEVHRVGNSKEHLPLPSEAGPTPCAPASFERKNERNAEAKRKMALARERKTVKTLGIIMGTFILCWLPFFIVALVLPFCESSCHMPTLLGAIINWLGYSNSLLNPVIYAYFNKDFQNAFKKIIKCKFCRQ
Experimental: as §1, with “C.” for “C. For 5-HT1A, 5-HT1B, 5-HT1F, MOR, KOR, and DOR functional assays, Gi/o-mediated cAMP inhibition was measured using the split-luciferase GloSensor assay in HEKT cells, conducted similarly as above, but in combination with either 0.3 μM isoproterenol (5-HT1A, 5-HT1B, 5-HT1F) or 1 μM forskolin (MOR, KOR, and DOR) to stimulate endogenous cAMP accumulation. For measurement of 5-HT1D, 5-HT1E, 5-HT4, and 5-HT5A functional assays, β-arrestin2 recruitment was measured by the Tango assay utilizing HTLA cells expressing TEV fused-β-arrestin2, as described previously with minor modifications.”

[7] = test system: C57BL/6J mice; assay: Head-twitch response (HTR) assay; settings: intraperitoneal; fumarate salts; 5-MeO-DMT 10 mg/kg as positive control
[8] = test system: larval zebrafish; assay: Heart rate and arrhythmia in immobilized larval zebrafish
[9] = test system: opioid receptors (MOR, KOR, DOR); assay: Opioid receptor functional assays (Gi/o-mediated cAMP inhibition); assay type: cell-based, human
Experimental: as §1, with “C.” for “C. For 5-HT1A, 5-HT1B, 5-HT1F, MOR, KOR, and DOR functional assays, Gi/o-mediated cAMP inhibition was measured using the split-luciferase GloSensor assay in HEKT cells, conducted similarly as above, but in combination with either 0.3 μM isoproterenol (5-HT1A, 5-HT1B, 5-HT1F) or 1 μM forskolin (MOR, KOR, and DOR) to stimulate endogenous cAMP accumulation. For measurement of 5-HT1D, 5-HT1E, 5-HT4, and 5-HT5A functional assays, β-arrestin2 recruitment was measured by the Tango assay utilizing HTLA cells expressing TEV fused-β-arrestin2, as described previously with minor modifications.”

[10] = molecular target: mouse 5-HT2A receptors (Mus musculus, UniProt P35363); assay: 5-HT2A Gq-mediated calcium flux functional assay (mouse); assay type: cell-based
mouse 5-HT2A receptors, sequence (P35363 whole entry, the tested form may be a part): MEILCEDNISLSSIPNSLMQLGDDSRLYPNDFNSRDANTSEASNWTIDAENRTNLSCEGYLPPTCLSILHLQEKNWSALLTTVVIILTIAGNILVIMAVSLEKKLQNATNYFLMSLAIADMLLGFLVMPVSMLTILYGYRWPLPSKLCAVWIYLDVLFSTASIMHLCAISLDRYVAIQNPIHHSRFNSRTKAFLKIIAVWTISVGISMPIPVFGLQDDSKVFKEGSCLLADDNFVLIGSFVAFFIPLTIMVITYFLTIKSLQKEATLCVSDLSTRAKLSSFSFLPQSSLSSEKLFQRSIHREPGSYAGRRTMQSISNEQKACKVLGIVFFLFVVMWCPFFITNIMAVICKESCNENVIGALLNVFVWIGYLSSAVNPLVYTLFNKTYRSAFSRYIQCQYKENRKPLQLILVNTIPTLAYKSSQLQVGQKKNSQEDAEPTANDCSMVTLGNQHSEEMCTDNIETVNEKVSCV
Experimental: as §1, with “C.” for “C. For 5-HT1A, 5-HT1B, 5-HT1F, MOR, KOR, and DOR functional assays, Gi/o-mediated cAMP inhibition was measured using the split-luciferase GloSensor assay in HEKT cells, conducted similarly as above, but in combination with either 0.3 μM isoproterenol (5-HT1A, 5-HT1B, 5-HT1F) or 1 μM forskolin (MOR, KOR, and DOR) to stimulate endogenous cAMP accumulation. For measurement of 5-HT1D, 5-HT1E, 5-HT4, and 5-HT5A functional assays, β-arrestin2 recruitment was measured by the Tango assay utilizing HTLA cells expressing TEV fused-β-arrestin2, as described previously with minor modifications.”

[11] = molecular target: T3, hERG channels expressed in HEK293 cells (Homo sapiens, UniProt Q12809); assay type: cell-based; settings: relative to ibogaine
T3 construct: expressed in transfected cells
T3 sequence (Q12809 whole entry): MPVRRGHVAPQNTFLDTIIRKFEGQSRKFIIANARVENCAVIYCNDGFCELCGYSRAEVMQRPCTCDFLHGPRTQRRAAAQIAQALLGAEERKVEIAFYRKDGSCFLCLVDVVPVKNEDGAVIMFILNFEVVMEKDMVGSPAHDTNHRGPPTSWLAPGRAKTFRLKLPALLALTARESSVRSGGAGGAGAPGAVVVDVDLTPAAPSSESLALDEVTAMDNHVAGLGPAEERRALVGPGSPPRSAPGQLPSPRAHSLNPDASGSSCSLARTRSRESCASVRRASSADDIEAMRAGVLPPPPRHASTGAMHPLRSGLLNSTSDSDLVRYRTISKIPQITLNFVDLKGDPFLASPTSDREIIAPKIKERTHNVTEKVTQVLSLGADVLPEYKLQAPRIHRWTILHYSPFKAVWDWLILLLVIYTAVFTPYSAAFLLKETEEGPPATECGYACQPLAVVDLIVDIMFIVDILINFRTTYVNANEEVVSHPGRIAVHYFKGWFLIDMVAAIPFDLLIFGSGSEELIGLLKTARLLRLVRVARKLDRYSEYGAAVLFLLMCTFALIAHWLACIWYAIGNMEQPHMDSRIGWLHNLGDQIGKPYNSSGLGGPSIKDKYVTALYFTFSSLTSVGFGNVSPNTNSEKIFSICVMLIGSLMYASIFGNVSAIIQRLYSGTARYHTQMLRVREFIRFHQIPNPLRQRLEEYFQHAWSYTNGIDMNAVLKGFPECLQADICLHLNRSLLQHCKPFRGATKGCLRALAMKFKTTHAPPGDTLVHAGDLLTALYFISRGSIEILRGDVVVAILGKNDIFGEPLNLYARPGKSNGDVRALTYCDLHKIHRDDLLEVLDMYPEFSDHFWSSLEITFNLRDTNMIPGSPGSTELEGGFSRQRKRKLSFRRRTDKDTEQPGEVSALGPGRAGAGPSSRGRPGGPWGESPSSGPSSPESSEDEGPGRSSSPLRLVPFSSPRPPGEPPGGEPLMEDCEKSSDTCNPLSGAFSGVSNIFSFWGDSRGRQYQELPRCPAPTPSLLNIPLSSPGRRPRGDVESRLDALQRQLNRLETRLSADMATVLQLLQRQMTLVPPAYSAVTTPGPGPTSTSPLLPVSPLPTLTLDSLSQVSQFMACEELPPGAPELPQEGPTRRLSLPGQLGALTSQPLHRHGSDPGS
Experimental: hERG Inhibition Studies. All experiments were conducted manually using an EPC-10 amplifier (HEKA, Lambrecht/Pfalz, Germany) at room temperature in the whole-cell mode of the patch-clamp technique. HEK-293 cells stably expressing hKv11.1 (hERG) under G418 selection were a generous gift from Craig January (University of Wisconsin, Madison). Cells were cultured in DMEM containing 10% fetal bovine serum, 2 mM glutamine, 1 mM sodium pyruvate, 100 U/mL penicillin, 100 μg/mL streptomycin, and […]. Before experiments, cells were cultured to 60-80% confluency and lifted using TrypLE and plated onto poly-L-lysine-coated coverslips. Patch pipettes were pulled from soda lime glass (micro-hematocrit tubes) and had resistances of 2-4 MO. For the external solution, normal sodium Ringer was used (160 mM NaCl, 4.5 mM KCl, 2 mM CaCl2, 1 mM MgCl2, 10 mM HEPES, pH 7.4 and 290-310 mOsm). The internal solution used was potassium fluoride with ATP (160 mM KF, 2 mM MgCl2, 10 mM EGTA, 10 mM HEPES, 4 mM NaATP, pH=7.2 and 300-320 mOsm). A 2-step pulse (applied every 10 sec) from −80 mV first to 40 mV for 2 sec and then to −60 mV for 4 sec, was used to elicit hERG currents. The percent reduction of tail current amplitude by the drugs was determined and data are shown as mean+/−SD. For all experiments, solutions of the drugs were prepared fresh from 10 mM stock solutions in DMSO. […]

[12] = test system: larval zebrafish; assay: Larval zebrafish movement activity during a battery of light and acoustic stimuli
Description: Stimuli applied over time are indicated under the heatmaps. Colors indicate bright LED light of respective colors, black traces represent the waveforms of acoustic stimuli, and gray vertical lines indicate physical tapping as secondary acoustic stimuli.
Response is […] proportional to classification accuracy; 0-20% indicates no ability and 100% indicates perfect classification. […] The solid line denotes the median and the shading denotes a 95th percentile confidence interval calculated by bootstrap. N=8 wells/condition (64 animals/condition).

[13] = test system: zebrafish; assay: Zebrafish developmental toxicity assay; assay type: in vivo; settings: 100 μM; 2 and 5 dpf
[14] = test system: C57/BL6J mice; assay: Forced swim test (FST); assay type: in vivo, mouse; settings: 24 h after drug administration; TBG 50 mg/kg, ketamine 3 mg/kg i.p.
Experimental: Forced Swim Test (FST). Male C57/BL6J mice (9-10 weeks old at time of experiment, n=10 per condition) were obtained from the Jackson Lab and housed 4-5 mice/cage in a UCD vivarium following an IACUC approved protocol. After 1 week in the vivarium each mouse was handled for approximately 1 minute by a experimenter for 3 consecutive days leading up to the first FST. All experiments were carried out by the same experimenter who performed handling. During the FST, mice underwent a 6 min swim session in a clear Plexiglas cylinder 40 cm tall, 20 cm in diameter, and filled with 30 cm of 24±1° C. water. Fresh water was used for every mouse. After handling and habituation to the experimenter, drug-naïve mice first underwent a pretest swim to more reliably induce a depressive phenotype in the subsequent FST sessions. Immobility scores for all mice were determined after the pre-test and mice were randomly assigned to treatment groups to generate groups with similar average immobility scores to be used for the following two FST sessions. […] Experiments were video-recorded and manually scored offline. Immobility time—defined as passive floating or remaining motionless with no activity other than that needed to keep the mouse's head above water—was scored for the last 4 min of the 6 min trial.

COc1ccc2[nH]c3c(c2c1)CCN(C)CC3 [IBG]
psychoplastogenic effect on dendritic growth (Sholl analysis) [1]: performed comparably to ibogaine
solubility [2]: ≥ 40 mg/mL
activity mode at 5-HT2B receptors [3]: antagonists
agonist activity at human 5-HT2A receptors [4]: potent agonist activity
5-HT2C agonist activity compared to 5-MeO-DMT [5]: weaker 5-HT1A and 5-HT2C agonist activity
5-HT1A agonist activity compared to 5-MeO-DMT [6]: weaker 5-HT1A and 5-HT2C agonist activity
hallucinogenic potential (head-twitch response) [7]: significantly reduced hallucinogenic potential
heart rate (bradycardia) [8]: Neither IBG nor TBG induced these undesirable phenotypes; also recorded: do not induce bradycardia
likelihood of arrhythmias (ratio of atrium to ventricle BPM) [8]: Neither IBG nor TBG induced these undesirable phenotypes
opioid agonist activity [9]: weak or no opioid agonist activity
agonist activity at mouse 5-HT2A receptors [10]: potent agonist activity
fold less potent than ibogaine at hERG [11]: approximately 10 fold
behavioral phenotype at highest concentration versus lethal control ([12]; 200 μM): did not produce this phenotype
behavioral phenotype with increasing concentration versus vehicle and lethal control (eugenol, 100 μM) ([12]; 1 h treatment, concentration-response): do not produce movement responses in larval zebrafish similar to a lethal concentration of eugenol
machine learning classification of movement responses ([12]; highest concentrations (200 μM)): more similar to vehicle controls than to ibogaine, noribogaine, or lethal controls
malformations, mortality, non-viable fish [13]: significantly fewer non-viable fish than ibogaine or noribogaine treatments

CNC1(c2ccccc2Cl)CCCCC1=O (centres unmarked) [ketamine, reference compound]
immobility in FST [14]: significantly reduced immobility
